Measurements reported in patent US11590119B2, “(S)-2-(1-(5-(cyclohexylcarbamoyl)-6-(propylthio)pyridin-2-yl)piperidin-3-yl)acetic acid for use in medicine” (University of Leeds, priority 2019, dated 2023).

Columns and labels:
Format in all cases: in vivo, human
[1] = Phase II trial in T2DM: adverse effects; details: T2DM patients, 400 mg twice daily oral, 35 days
Excerpt: AD4017 is thus identified for the first time as a safe and effective agent with therapeutic and prophylactic potential for the treatment of wound healing in patient populations susceptible to the development of chronic wounds and the complications associated therewith.

skin wounds = assay: Phase II trial in T2DM: deep learning segmentation of OCT wound images; details: day 30, 2 days after wounding at day 28, p<0.05
Excerpt: FIG. 17: 2D OCT image of wound segmented into compartments. i) void; ii) intact tissue; iii) wound collagen; iv) wound with sponginess morphology; v) neoepidermis; vi) clot & vii) blood (in liquid form).
FIG. 18: Figure illustrating the improved amount of A) neoepidermis and B) clot volume two days after wounding and after 30 days of treatment with AZD4017 (AZD) and placebo (PBO).
To further understand the effects of AZD4017 in the wound healing process a deep learning based image processing method was developed for recognising different sub-tissue components from optical coherence tomography (OCT) images. The method was based on a u-net convolutional neural network (see Ronneberger O., Fischer P., Brox T. (2015) U-Net: Convolutional Networks for Biomedical Image Segmentation. In: Navab N., Hornegger J., Wells W., Frangi A. (eds) Medical Image Computing and Computer-Assisted Intervention—MICCAI 2015. MICCAI 2015. Lecture Notes in Computer Science, vol 9351. Springer, Cham. https://doi.org/10.1007/978-3-319-24574-4_28). […]
Further morphological image processing was then performed to the labelled image as post processing processes to show meaningful continuous regions of sub-tissue components. As a result, the area (mm^2) of each sub-tissue components could be calculated. In addition the volume (mm^3) of each sub-tissue components across 120 slices of tissues were also determined. […]

epidermis = assay: Phase II trial in T2DM: epidermal thickness by OCT; details: day 35, 400 mg twice daily
Protocol: FIG. 14: Epidermal thickness (μm) in the placebo (PBO) and AZD4017 (AZD) treated arms after 35 days.
As noted above, glucocorticoid therapy is known to cause skin thinning and dispose patients to the development of chronic wounds. Epidermal thickness was measured by OCT at Visits 1 (day 0) and 6 (day 35, i.e. after 35 days of treatment with 400 mg AZD4017, twice daily). Results from these measurements are presented alongside the confidence interval in the measurements at day 35.

stratum corneum = assay: Phase II trial in T2DM: N tapes, tape stripping to a pre-specified TEWL; details: after 4 weeks treatment
Protocol: FIG. 16: The number of tapes (N tapes) required to achieve the equivalent amount of barrier disruption in the placebo (PBO) and AZD4017 (AZD) treated arms at day 28. Confidence intervals are presented to the right.
A further way in which the skin quality of patients treated with AZD4017 was evaluated involved stripping of the skin with adhesive patches to achieve a consistent damage level as established by transepidermal water loss (TEWL), a measure of the permeability of the skin barrier.
In more detail, evaporation of water from the skin occurs as part of normal skin metabolism. As barrier function is disrupted, water loss increases. The Tewameter® TM 300 probe (commercially available from Courage and Khazaka Electronic GmbH, 50829 Köln, Germany) measures the density gradient of the water evaporation from the skin by two pairs of sensors (temperature and relative humidity) inside a hollow cylinder. […]
Adhesive patches (D-Squame® tapes, from D-Squame, Clinical and Derm LLC, Dallas, Tex., www.clinicalandderm.com) were used to gently remove the stratum corneum layers to a pre-specified TEWL (trans-epidermal water loss) rate from the lower inner forearm at Visits 1 and 4. […] At day, after 4 weeks treatment, the number of tapes required to induce the same level of damage on the skin as evaluated by this technique was 43% higher in the 11β-HSD1 inhibitor treated cohort than in the placebo arm.

Compound: CCCSc1nc(N2CCC[C@@H](CC(=O)O)C2)ccc1C(=O)NC1CCCCC1 [AZD4017, (S)-2-(1-(5-(cyclohexylcarbamoyl)-6-(propylthio)pyridin-2-yl)piperidin-3-yl)acetic acid]
- adverse effects in the treatment cohort [1]: no significant adverse effects
- volume of clots in the wound site compared to placebo (skin wounds): statistical significant increases
- volume of neoepidermis in the wound site compared to placebo (skin wounds): statistical significant increases
- epidermal depth greater than the placebo arm (epidermis): 5.58 μm
- number of tapes required to induce the same level of damage, higher than in the placebo arm (stratum corneum): 43%
